{
  "source": "patent US20140364316A1",
  "about": "“COMPOSITION FOR IMPROVING RESISTANCE TO ENVIRONMENTAL STRESS OF PLANT AND METHOD FOR IMPROVING RESISTANCE TO ENVIRONMENTAL STRESS OF PLANT” (The Shizuoka Chamber of Commerce and Industry, priority 2012, published 2014)",
  "key": {"[1]": {"test_system": "rats", "details": "Non Patent Literature 1; cited from earlier work"}, "[2]": {"test_system": "Arabidopsis thaliana", "assay": "Evaluation of high temperature resistance 2 (35° C. for 1 hour and 45° C. for 2 hours)", "type": "in vivo", "details": "4th day after high temperature exposure", "protocol": "As a sanguinarine reagent available on the market, a sanguinarine chloride hydrate (S5890-25MG manufactured by Sigma-Aldrich Japan K.K.) was obtained, the sanguinarine chloride hydrate was dissolved in water such that the sanguinarine concentration is 0.2 ppm, 2 ppm, or 20 ppm, and thus a sample liquid for each test plot was respectively prepared. In addition, as a sample liquid for the control plot, a 0.5% DMSO solution was prepared. By using these sample liquids, the following tests were performed.\nSeeds of Arabidopsis thaliana were sowed and cultivated in a rockwool cube which had been saturated with a diluent of the HYPONEX (registered trademark) diluted by 1,000 times. The cultivation environment conditions were a cycle of [bright place for 16 hours+dark place for 8 hours], and a temperature of 22° C. On around the strain of Arabidopsis thaliana on the 14th day after the start of cultivation, a sample liquid composed of an aqueous sanguinarine solution that had been adjusted to various concentrations, and a 0.5% DMSO solution for the control plot were respectively applied dropwise using a dropper. The dropping amount was set to 100 μL per a plant body. Therefore, the sanguinarine amount applied per a plant body in each test plot was 0.02 μg in the test plot of 0.2 ppm, 0.2 μg in the test plot of 2 ppm, and 0.002 mg in the test plot of 20 ppm. After the dropping, under the initial cultivation environment conditions, the cultivation was continued for 2 days, then the room temperature was increased to 35° C., and exposure was performed for 1 hour in a bright place. Further, the room temperature was increased to 45° C., and high temperature exposure was performed for 2 hours in a dark place. […]\nThe state of the grown true leaves of Arabidopsis thaliana on the 4th day after the high temperature exposure under the above conditions was visually evaluated on a four level scale (index, 3: plant death, 2: partial plant death, 1: partial whitening, and 0: normal), and by assigning the values to the following equation, the average degree of damage was calculated. […]"}},
  "data": [
    {"smiles": "C[n+]1cc2c3c(ccc2c2ccc4cc5c(cc4c21)OCO5)OCO3", "note": "[sanguinarine]", "values": [
      {"measurement": "physiological disorders after administration", "setting": "[1]", "result": "disorders of particular note were not observed"},
      {"measurement": "average degree of damage with increasing dosage", "setting": "[2]; 0.2 ppm to 20 ppm, FIG. 4", "result": "average degree of damage of Arabidopsis thaliana is reduced"},
      {"measurement": "growth (appearance and average degree of damage) compared with control plot (0.5% DMSO solution)", "setting": "[2]; sanguinarine 0.2 ppm, 2 ppm or 20 ppm, 100 μL per plant body, FIG. 3, FIG. 4", "result": "growth was relatively favorable"},
      {"measurement": "average degree of damage", "setting": "[2]; sanguinarine 20 ppm (0.002 mg per plant body)", "result": "less than 10%"}
    ]}
  ]
}
